The values that follow come from paper PMC6832257, “Design, Synthesis and Evaluation of New Indolylpyrimidylpiperazines for Gastrointestinal Cancer Therapy” (Molecules, 2019).

Like-named read-outs stand apart in the source and are kept apart here.

In series [1] the test system is human colon carcinoma patients. The note with it: phase II; cited from earlier work.
Series [2] deals with T1, hA3AR (Homo sapiens, UniProt P0DMS8).
T1 construct: expressed in transfected cells; host or cells: HEK293
T1 sequence (P0DMS8 1-318): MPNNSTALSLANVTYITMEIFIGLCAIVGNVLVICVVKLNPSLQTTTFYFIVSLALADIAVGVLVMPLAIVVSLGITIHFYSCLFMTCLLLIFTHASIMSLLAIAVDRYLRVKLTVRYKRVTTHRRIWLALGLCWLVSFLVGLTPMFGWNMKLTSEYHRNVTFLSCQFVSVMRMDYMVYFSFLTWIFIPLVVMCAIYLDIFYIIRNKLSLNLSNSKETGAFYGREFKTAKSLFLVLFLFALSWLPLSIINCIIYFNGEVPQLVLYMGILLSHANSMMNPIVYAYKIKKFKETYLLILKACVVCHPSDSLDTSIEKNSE
The note with it: cited from earlier work.

For series [3], the target named is hA1. The note with it: cited from earlier work.
Series [4] deals with hA2B. The note with it: cited from earlier work.
In series [5] the target is T1, hA3AR. Briefly: TGFα shedding assay at hA3AR. The class given is cell-based. The note with it: for Emax: HEK293 cells; for EC50: hA3AR-expressing HEK293 cells. On the procedure: This recently-developed assay utilizes an alkaline phosphatase-TGFα fusion protein reporter system to quantitatively evaluate specific GPCR-mediated G protein activation (shown in Figure 3) of test compounds [22].
Expression vectors (250 ng of AP-TGFα plasmid, 100 ng of hA2AAR/hA3AR plasmid and 50 ng of Gα protein) were transfected into HEK293 cells using Lipofectamine 2000 (1.25 μL/well) in 12-well plates. Transfection of siRNA (final concentration: 10 nM) was conducted with Lipofectamine RNAiMAX (1 μL/well), 48 h before assay to prevent interference from other signaling pathways. Transfected cells were detached with brief treatment with phosphate-buffered saline (PBS) containing 0.05% trypsin and 0.52 mM ethylenediaminetetraacetic acid (EDTA). The cell suspension was pelleted via centrifugation (190 g, 5 min). Trypsin was removed from the cells via resuspension in PBS, followed by 5 min of incubation at room temperature. Cells were subsequently pelleted with centrifugation (190 g, 5 min) and resuspended in Hank’s Balanced Salt Solution (HBSS) containing 5 mM 4-(2-hydroxyethyl)-1-piperazineethanesulfonic acid (HEPES) (pH 7.4). Resuspended cells were plated in 90 μL/well in 96-well plate and incubated at 37 °C in 5% CO2 for 30 min. 10 μL of 10X concentration of compounds were added and incubated for 1 h at 37 °C in 5% CO2. Plates were centrifuged at 190 g for 2 min. […] per well of conditioned medium (10 mM p-NPP, 40 mM Tris-HCl (pH 9.5), 40 mM NaCl & 10 mM MgCl2) was transferred into a conditioned medium plate and 80 µL per well of conditioned medium was added to the test compound plate. Absorbance at 405 nm (OD405) of both plates was read before and after a 1-h incubation at 37 °C using a microplate reader.

The test system of series [6] is Caco-2 cell line. Briefly: MTT cytotoxicity assay, Caco-2. It counts as cell-based. The note with it: Homo sapiens; Caco-2, MTT, 72 h. The protocol: (§1) Human colorectal carcinoma cell lines, HCT-116 and Caco-2, were used as models for colorectal cancer cells overexpressing hA3AR. Human normal colon cell line CCD-18Co was used as a model for normal colon cells that express normal levels of hA3AR. The HCT-116, Caco-2 and CCD-18Co cell lines were all cultured in accordance with the ATCC protocols.
(§2) The cytotoxicity of compound 4 was determined by 3-(4,5-dimethylthiazol-2-yl)-2,5-diphenyltetrazolium bromide (MTT) assay. The cells were harvested from culture flasks by trypsinisation and seeded into 96-well microculture plates (Costar, Corning, USA) at the seeding density of 6000 cells per well or 10,000 per well (CCD18Co). After the cells were allowed to resume exponential growth for 24 h, they were exposed to compound 4 or 2-Cl-IB-MECA in media for 72 h. The drugs were diluted in complete medium at the desired concentration, and 100 μL of the drug solution was added to each well and serially diluted to other wells. After exposure for 72 h, drug solutions were replaced with 100 μL of MTT in complete media (5 mg ml^−1) and incubated for an additional 1 h. Subsequently, the medium was aspirated and the purple formazan crystals formed in viable cells were dissolved in 100 μL of dimethyl sulfoxide (DMSO) per well. Optical densities were measured at 570 nm with a microplate reader. […]
On the technique in general: Formazan colour is commonly taken as a measure of viable cells.

The test system of series [7] is HepG2 cell line. The experiment in a line: MTT cytotoxicity assay, HepG2. It counts as cell-based. The note with it: Homo sapiens, 72 h. On the procedure: The HepG2 cell line was also cultured in accordance with the ATCC protocol.
as §2, with “reader. The quantity of viable cells was expressed in terms of treated/control (T/C) values by comparison to untreated control cells, and 50% inhibitory concentrations (IC50) were calculated from concentration-effect curves by interpolation using GraphPad Prism (Version 5.0, GraphPad Software, USA).” for “reader.”

The subject of series [8] is HCT-116 cell line. The experiment in a line: MTT cytotoxicity assay, HCT-116. The class given is cell-based. The note with it: Homo sapiens; HCT-116, MTT, 72 h. The protocol: as §1, §2
Series [9] in a line: UV-vis stability assay. The note with it: 50 μM in water, RPMI-1640 and DMEM culture medium over 72 h. The class given is physicochemical. On the procedure:
Stock solution of 50 μM of compound 4 was prepared in DMSO. Two quartz cuvettes were soaked in 70% ethanol in water for 1h. The quartz cuvettes were subsequently left to dry in a biological safety cabinet. When both quartz cuvettes were dry, the quartz cuvettes, i.e., sample cuvette and blank cuvette, were filled with water or culture media (RPMI-1640 or DMEM) and parafilmed before being transferred into a UV-vis spectrophotometer (USA). The UV-vis spectrophotometer was auto-zeroed and the background was scanned from wavelengths of 200 nm to 800 nm. The sample cuvette was removed from the UV-vis spectrophotometer and transferred into the biological safety cabinet. Compound 4 was dissolved at a final concentration of 50 μM in 1.5 mL of water, RPMI or DMEM containing 10% FBS (without phenol red). The UV−vis profiles of the samples were monitored using UV-vis over 72 h at 1 h intervals from 200 to 800 nm.

The test system of series [10] is CCD-18Co cell line. The experiment in a line: MTT cytotoxicity assay, CCD-18Co. The class given is cell-based. The note with it: Homo sapiens, CCD-18Co normal colon cell line, 72 h. On the procedure: as §1, §2
Series [11] addresses T1, hA3AR. The note with it: read-out: Ki hA3; cited from earlier work.
The target in series [12] is T2, hA2AAR (Homo sapiens, UniProt P29274).
T2 construct: expressed in transfected cells; host or cells: HEK293
T2 sequence (P29274 whole entry): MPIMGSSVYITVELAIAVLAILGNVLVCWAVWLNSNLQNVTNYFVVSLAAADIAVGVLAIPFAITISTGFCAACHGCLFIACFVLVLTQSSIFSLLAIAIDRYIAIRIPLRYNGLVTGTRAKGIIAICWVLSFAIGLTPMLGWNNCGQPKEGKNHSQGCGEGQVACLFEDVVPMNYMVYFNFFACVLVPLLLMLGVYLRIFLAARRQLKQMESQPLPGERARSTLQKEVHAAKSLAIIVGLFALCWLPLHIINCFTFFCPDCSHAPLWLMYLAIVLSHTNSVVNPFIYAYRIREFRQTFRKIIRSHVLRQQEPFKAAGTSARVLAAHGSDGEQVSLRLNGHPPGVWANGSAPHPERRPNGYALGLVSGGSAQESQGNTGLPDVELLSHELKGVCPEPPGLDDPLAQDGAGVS
The note with it: ratio of binding affinities; cited from earlier work.

[13] abbreviates: HEK293, efficacy as compared to adenosine, read-out: Emax.

Take `CNC(=O)[C@H]1O[C@@H](n2cnc3c(NCc4cccc(I)c4)ncnc32)[C@H](O)[C@@H]1O` [IB-MECA]: the “disease stabilization, share of patients” value in series [1] was 35%. Besides, the β-arrestin translocation response in series [2] is given as 100 ± 7%.
In the case of `Cc1cc(C)nc(N2CCN(CCc3c(C)[nH]c4ccccc34)CC2)n1` [Compound 2, decarbonyl IPP], the Ki in series [3] was greater than 100 µM; in [4] it was greater than 20 µM.
Take `Cc1cc(C)nc(N2CCN(CC(=O)c3c[nH]c4c(Cl)cccc34)CC2)n1` [Compound 5, 2-(4-(4,6-Dimethylpyrimidin-2-yl)piperazin-1-yl)-1-(7-chloro-1H-indol-3-yl)ethanone]: the melting point is 163 °C (dec.). Moreover, in series [5] (setting [13]), the Emax is 77%. In addition, the EC50 in [5] (read-out: EC50) came to 13.4 ± 2.96 µM.
For `Nc1ncnc2c1ncn2[C@@H]1O[C@H](CO)[C@@H](O)[C@H]1O` [Adenosine, reference compound], the Emax in series [5] (setting [13]) was found to be 100%.
With `CNC(=O)[C@H]1O[C@@H](n2cnc3c(NCc4cccc(I)c4)nc(Cl)nc32)[C@H](O)[C@@H]1O` [Compound 2-Cl-IB-MECA, 2-Cl-IB-MECA, reference compound], the IC50 stood at 31 ± 4 µM in [6], 13 ± 3 µM in [7] and 21 ± 6 µM in series [8]. Further, in [2], the β-arrestin translocation response was 102 ± 13%.
Regarding `Cc1cc(C)nc(N2CCN(CC(=O)c3c[nH]c4c([N+](=O)[O-])cccc34)CC2)n1` [Compound 6, 2-(4-(4,6-Dimethylpyrimidin-2-yl)piperazin-1-yl)-1-(7-nitro-1H-indol-3-yl)ethanone], the melting point is 165 °C (dec.). Moreover, the Emax in series [5] (setting [13]) turned out to be 72%. For the same molecule, the EC50 in series [5] (read-out: EC50) amounted to 33.2 ± 16.5 µM.
`Cc1cc(C)nc(N2CCN(CC(=O)c3c[nH]c4ccccc34)CC2)n1` [Compound 3, 2-(4-(4,6-Dimethylpyrimidin-2-yl)piperazin-1-yl)-1-(1H-indol-3-yl)ethanone]: the melting point was 165 °C (dec.). The EC50 entry in [5] was “essentially inactive”.
Take `OC[C@H]1O[C@@H](n2cnc3c(NCc4cccc(I)c4)ncnc32)[C@H](O)[C@@H]1O` [MRS541]: the β-arrestin translocation response in series [2] is listed as 30.8 ± 1.6%.
As to `COc1cccc2c(C(=O)CN3CCN(c4nc(C)cc(C)n4)CC3)c[nH]c12` [Compound 4, 2-(4-(4,6-Dimethylpyrimidin-2-yl)piperazin-1-yl)-1-(7-methoxy-1H-indol-3-yl)ethanone], the melting point is 162 °C (dec.). Besides, the half-maximal inhibitory concentration (IC50) in series [6] came to 77 ± 10 µM. Further, the Emax in [5] (setting [13]) is 30%. This molecule also showed an Emax in series [5] (efficacy as compared to adenosine) of 31%. The EC50 in series [5] (read-out: EC50) was found to be 2.89 ± 0.55 µM. For the same molecule, the “Stability (UV-vis)” value in [9] is reported as “excellent stability”. The molecule further gave an IC50 in series [10] of 176 ± 48 µM. In series [7], this molecule gave an IC50 of 30 ± 7 µM. In addition, the IC50 in series [8] was 84 ± 9 µM.
For `Cc1cc(C)nc(N2CCN(C(=O)Cc3c(C)[nH]c4ccccc34)CC2)n1` [Compound 1, indolylpyrimidylpiperazine (IPP)], the Ki in [3] is greater than 100 µM; in series [4] it was greater than 20 µM; in [11], greater than 100 µM. Also, the “selectivity hA2AAR/hA3AR” value in series [12] was greater than 12.

The term Ki denotes the dissociation constant of the complex between target and ligand, obtained from inhibition or displacement. One may read the Emax as the greatest response seen or fitted, relative to the assay's reference. A word on the EC50: it is the concentration needed to bring the measured effect to its halfway point. As a reminder, the melting point is the temperature of the solid-liquid transition. A word on the IC50: it is the concentration needed to halve the response being measured. A low value points to inhibition by little substance.
